Where two headings read alike, the source gives them in different places.
Legend:
[1] = test system: HIV strain containing the Y181C mutation; test: Spread assay: inhibition of acute HIV-1 infection of T-lymphoid cells (Y181C); assay type: cell-based; conditions: Human immunodeficiency virus 1, T-lymphoid, read-out: Spread (Y181C) CIC95 (10% FBS)
Experimental: (§1) Assays for the inhibition of acute HIV-1 infection of T-lymphoid cells (alternatively referred to herein as the “spread assay”) were conducted in accordance with Vacca, J. P. et al., Proc. Natl. Acad. Sci. USA 1994, 91: 4096. The assays tested for inhibition of wild type HIV-1 and of HIV strains containing the Y181C or K103N mutation. […] Table C also reports the CIC95 values of certain of the title compounds of Examples 1-25 obtained in the assays employing the Y181C mutant strain and the K103N mutant strain.

[2] = molecular target: T1, HIV reverse transcriptase with the K103N mutation (Human immunodeficiency virus type 1 group M subtype B, UniProt P04585, K690N); test: ECL assay for inhibition of mutant HIV reverse transcriptase (K103N); assay type: biochemical, HIV-1
T1 construct: made in house
Experimental: (§2) 100 μL reaction mixtures were initiated with a combination of primer-template substrate (10 nM final concentration) and dNTPs (0.6 μM dNTPs, 1.25 μM BrdUTP). The heterodimeric nucleic acid substrate was generated by annealing the DNA primer pD500 (described in Shaw-Reid et al., J. Biol. Chem., 278: 2777-2780; obtained from Integrated DNA Technologies) to t500, a 500 nucleotide RNA template created by in vitro transcription (see Shaw-Reid et al., J. Biol. Chem., 278: 2777-2780). After 1 hour incubation at 37° C., reactions were quenched by 10 μL of 1 N NaOH. Microtiter plates were incubated for an additional 30 minutes at room temperature and then neutralized with 10 μL of 1 N HCl. A mixture of detection buffer containing ruthenylated anti-BrdU antibody and streptavidin coated magnetic beads were added to the plate and incubated at room temperature for 1.5 hours prior to quantification via electrochemiluminescence instrument.
(§3) Analogous assays were conducted substituting mutant HIV strains to determine the […] inhibition of compounds of the present invention against mutant HIV reverse transcriptase. In one strain the reverse transcriptase has the Y181C mutation and in the other strain the reverse transcriptase has the K103N mutation. The mutations were generated with the […] site-directed mutagenesis kit (Stratagene).

[3] = molecular target: T2, HIV reverse transcriptase with the Y181C mutation (Human immunodeficiency virus type 1 group M subtype B, UniProt P04585, Y768C); test: ECL assay for inhibition of mutant HIV reverse transcriptase (Y181C); assay type: biochemical, HIV-1
T2 construct: made in house
Experimental: as §2, §3

[4] = molecular target: HIV-1 RT enzyme (wild-type) (Human immunodeficiency virus type 1 group M subtype B, UniProt P04585); test: ECL assay for inhibition of HIV reverse transcriptase (WT); assay type: biochemical
Experimental: as §2

wild type HIV-1 = test: Spread assay: inhibition of acute HIV-1 infection of T-lymphoid cells (WT); assay type: cell-based; conditions: Human immunodeficiency virus 1, T-lymphoid; wild type HIV-1, 10% FBS; read-out: Spread (WT) CIC95 (10% FBS)
Experimental: as §1

T-lymphoid cells = assay type: cell-based
Experimental: Cytotoxicity was determined by microscopic examination of the cells in each well in the spread assay, wherein a trained analyst observed each culture for any of the following morphological changes as compared to the control cultures: pH imbalance, cell abnormality, cytostatic, cytopathic, or crystallization (i.e., the compound is not soluble or forms crystals in the well). The toxicity value assigned to a given compound is the lowest concentration of the compound at which one of the above changes is observed.

[5] = test system: HIV strain containing the K103N mutation; test: Spread assay: inhibition of acute HIV-1 infection of T-lymphoid cells (K103N); assay type: cell-based; conditions: Human immunodeficiency virus 1, T-lymphoid, read-out: Spread (K103N) CIC95 (10% FBS)
Experimental: as §1

[6] = K103N mutant RT, read-out: ECL Assay (K103N) IC50
[7] = Y181C mutant RT, read-out: ECL Assay (Y181C) IC50
[8] = wild-type HIV-1 RT, read-out: ECL Assay (WT) IC50

Structure (SMILES)	IC95 [1]	IC50 [2, 6]	IC50 [3, 7]	IC50 [4, 8]	IC95 (wild type HIV-1)	Cytotoxicity: no cytotoxicity at concentrations up to (T-lymphoid cells)	IC50 [2]	IC50 [3]	IC95 [5]	IC50 [4]	Cytotoxicity: no cytotoxicity at concentrations of up to (T-lymphoid cells)
N#Cc1cc(Cl)cc(Oc2c(Cl)ccn(Cc3n[nH]c4ncccc34)c2=O)c1 [Compound 21-8, 3-chloro-5-{[4-chloro-2-oxo-1-(1H-pyrazolo[3,4-b]pyridin-3-ylmethyl)-1,2-dihydropyridin-3-yl]oxy}benzonitrile]	8 nM	1.4 nM	1 nM	0.8 nM	3 nM	> 833 nM					
Cl.Nc1ccc2c(Cn3ccc(C(F)(F)F)c(Oc4cc(Cl)cc(Cl)c4)c3=O)n[nH]c2n1 [Compound 20-3, 3-{[3-(3,5-dichlorophenoxy)-2-oxo-4-(trifluoromethyl)pyridin-1(2H)-yl]methyl}-1H-pyrazolo[3,4-b]pyridin-6-aminium chloride]	169 nM				20 nM	> 833 nM	5.9 nM	1.6 nM	87 nM	1.6 nM	
O=c1c(Oc2cc(Cl)cc(Cl)c2)c(C(F)(F)F)ccn1Cc1n[nH]c2ncccc12 [Compound 19-4, 3-(3,5-dichlorophenoxy)-1-(1H-pyrazolo[3,4-b]pyridin-3-ylmethyl)-4-(trifluoromethyl)pyridin-2(1H)-one]	48 nM	2.1 nM	1.5 nM	1.1 nM	9 nM	> 833 nM			21 nM		
N#Cc1cc(Cl)cc(Oc2c(C(F)(F)F)ccn(CC(=O)Nc3ccc(S(N)(=O)=O)cc3Cl)c2=O)c1 [Compound 15, N-[4-(aminosulfonyl)-2-chlorophenyl]-2-[3-(3-chloro-5-cyanophenoxy)-2-oxo-4-(trifluoromethyl)pyridin-1 (2H)-yl]acetamide]		4.8 nM	3.9 nM	3.3 nM	10 nM	> 833 nM			6 nM		
N#Cc1cc(Cl)cc(Oc2cc(C(O)c3n[nH]c4ncccc34)[nH]c(=O)c2Cl)c1 (centres unmarked) [Compound 25-2]					28 nM		13 nM	4.7 nM	180 nM	3.2 nM	
Cc1nc(OCc2n[nH]c3ncccc23)c(Cl)c(Oc2cc(Cl)cc(C#N)c2)c1Cl [Compound 7-1, 3-chloro-5-{[3,5-dichloro-2-methyl-6-(1H-pyrazolo[3,4-b]pyridin-3-ylmethoxy)pyridin-4-yl]oxy}benzonitrile]		27 nM	3.5 nM	1.3 nM	100 nM				1700 nM		> 8.5 µM
N#Cc1cc(Cl)cc(Oc2c(Cl)ccn(Cc3n[nH]c4nc(N)ccc34)c2=O)c1.O=C(O)C(F)(F)F [Compound 22, 3-({1-[(6-amino-1H-pyrazolo[3,4-b]pyridin-3-yl)methyl]-4-chloro-2-oxo-1,2-dihydropyridin-3-yl}oxy)-5-chlorobenzonitrile trifluoroacetate]	63 nM				2 nM	> 833 nM	2.1 nM	1.8 nM	7 nM	1.3 nM	
Cc1ccn(CCc2n[nH]c3ncccc23)c(=O)c1Oc1cc(Cl)cc(C#N)c1 [Compound 12-7, 3-chloro-5-({4-methyl-2-oxo-1-[2-(1H-pyrazolo[3,4-b]pyridin-3-yl)ethyl]-1,2-dihydropyridin-3-yl}oxy)benzonitrile]		58 nM	51 nM	25 nM	248 nM	> 833 nM			447 nM		
N#Cc1cc(Cl)cc(Oc2cc(NCc3n[nH]c4ncccc34)[nH]c(=O)c2Cl)c1 [Compound 8-5, 3-chloro-5-({3-chloro-2-oxo-6-[(1H-pyrazolo[3,4-b]pyridin-3-ylmethyl)amino]-1,2-dihydropyridin-4-yl}oxy)benzonitrile]		11 nM	5.7 nM	0.9 nM	34 nM				833 nM		> 8.5 µM
Cc1ccn(Cc2n[nH]c3ncccc23)c(=O)c1Oc1cc(Cl)cc(C#N)c1 [Compound 11-7, 3-chloro-5-{[4-methyl-2-oxo-1-(1H-pyrazolo[3,4-b]pyridin-3-ylmethyl)-1,2-dihydropyridin-3-yl]oxy}benzonitrile]		3.7 nM	3.2 nM	2.5 nM	7 nM	> 833 nM			14 nM		
N#Cc1cc(Cl)cc(Oc2c(Cl)c(CCc3n[nH]c4ncccc34)[nH]c(=O)c2Cl)c1 [Compound 5-6, 3-chloro-5-({3,5-dichloro-2-oxo-6-[2-(1H-pyrazolo[3,4-b]pyridin-3-yl)ethyl]-1,2-dihydropyridin-4-yl}oxy)benzonitrile]		1.8 nM	1.6 nM	1.2 nM	42 nM				367 nM		> 8.5 µM
N#Cc1cc(Cl)cc(Oc2cc(CCc3n[nH]c4ncccc34)[nH]c(=O)c2)c1 [Compound 3-9, 3-chloro-5-({2-oxo-6-[2-(1H-pyrazolo[3,4-b]pyridin-3-yl)ethyl]-1,2-dihydropyridin-4-yl}oxy)benzonitrile]	360 nM	32 nM	11 nM	3.8 nM	55 nM	> 833 nM			320 nM		
N#Cc1cc(C#N)cc(Oc2c(C(F)(F)F)ccn(Cc3n[nH]c4ncccc34)c2=O)c1 [Compound 18-4, 5-{[2-oxo-1-(1H-pyrazolo[3,4-b]pyridine-3-ylmethyl)-4-(trifluoromethyl)-1,2-dihydropyridin-3-yl]oxy}isophthalonitrile]	8 nM	5.1 nM	4.1 nM	3.4 nM	7 nM	> 833 nM			6 nM		
CCOC(=O)c1cc(Cl)cc(Oc2c(Cl)c(CCc3n[nH]c4ncccc34)[nH]c(=O)c2Cl)c1 [Compound 5-7, ethyl 3-chloro-5-({3,5-dichloro-2-oxo-6-[2-(1H-pyrazolo[3,4-b]pyridin-3-yl)ethyl]-1,2-dihydropyridin-4-yl}oxy)benzoate]		52 nM	49 nM	3.5 nM	1220 nM						> 8.5 µM
CN(Cc1ccccc1Cl)C(=O)Cn1ccc(C(F)(F)F)c(Oc2cc(Cl)cc(C#N)c2)c1=O [Compound 14, N-(2-chlorobenzyl)-2-[3-(3-chloro-5-cyanophenoxy)-2-oxo-4-(trifluoromethyl)pyridin-1(2H)-yl]-N-methylacetamide]		440 nM	290 nM	300 nM	330 nM	> 833 nM			284 nM		
N#Cc1cc(Cl)cc(Oc2cc(Cn3c(=O)[nH]c4ccccc43)[nH]c(=O)c2Cl)c1 [Compound 9-8, 3-chloro-5-({3-chloro-2-oxo-6-[(2-oxo-2,3-dihydro-1H-benzimidazol-1-yl)methyl]-1,2-dihydropyridin-4-yl}oxy)benzonitrile]		13 nM	6.3 nM	4.8 nM	638 nM						> 8.5 µM
N#Cc1cc(Cl)cc(Oc2cc(CCc3n[nH]c4ncccc34)ncc2Cl)c1 [Compound 6-5, 3-chloro-5-({5-chloro-2-[2-(1H-pyrazolo[3,4-b]pyridin-3-yl)ethyl]pyridin-4-yl}oxy)benzonitrile]		87 nM	270 nM	25 nM	103 nM				361 nM		> 8.5 µM
